Test results: patent publication US9944602B2, “Piperidinone herbicides” (E. I. DU PONT DE NEMOURS AND COMPANY, priority 2014, dated 2018)

What was measured:
Type in all cases: in vivo
[1] = tested on: wheat (Triticum aestivum); assay: Test A postemergence wheat; details: 0 to 100 scale, 0 is no effect, 100 is complete control
Outline: (§1)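 Both application timings used the same loam-and-sand medium and the same solvent–surfactant formulation. Postemergence plants were 2–10 cm at the one- to two-leaf stage. After roughly 10 d of greenhouse growth, injury was judged visually against untreated plants, where 0 is no effect and 100 complete control.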

corn (Zea mays) = assay: Test A postemergence corn; details: 0 to 100 scale, 0 is no effect, 100 is complete control
Outline: as §1

[2] = tested on: sedge, umbrella (small-flower umbrella sedge, Cyperus difformis); assay: Test B flooded paddy test sedge, umbrella; details: Table B, Flood, scale 0 to 100
Outline: (§2)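 2-leaf plants; flood 3 cm over soil; cpd into paddy water; water depth kept; greenhouse 13–15 d; visual rating vs controls.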

[3] = tested on: ducksalad (Heteranthera limosa); assay: Test B flooded paddy test ducksalad; details: Table B, Flood, scale 0 to 100
Outline: as §2

[4] = tested on: foxtail, giant (giant foxtail, Setaria faberii); assay: Test A postemergence foxtail, giant; details: 0 to 100 scale, 0 is no effect, 100 is complete control
Outline: as §1

[5] = tested on: ragweed (common ragweed, Ambrosia elatior); assay: Test A postemergence ragweed; details: 0 to 100 scale, 0 is no effect, 100 is complete control
Outline: as §1

[6] = tested on: barnyardgrass (Echinochloa crus-galli); assay: Test A postemergence barnyardgrass; details: 0 to 100 scale, 0 is no effect, 100 is complete control
Outline: as §1

[7] = tested on: ryegrass, Italian (Italian ryegrass, Lolium multiflorum); assay: Test A postemergence ryegrass, Italian; details: 0 to 100 scale, 0 is no effect, 100 is complete control
Outline: as §1

kochia (Kochia scoparia) [8] = assay: Test A postemergence kochia; details: 0 to 100 scale, 0 is no effect, 100 is complete control
Outline: as §1

[9] = tested on: foxtail, giant (giant foxtail, Setaria faberii); assay: Test A preemergence foxtail, giant; details: 0 to 100 scale, 0 no effect, 100 complete control
Outline: as §1

[10] = tested on: ryegrass, Italian (Italian ryegrass, Lolium multiflorum); assay: Test A preemergence ryegrass, Italian; details: 0 to 100 scale, 0 no effect, 100 complete control
Outline: as §1

[11] = tested on: pigweed (Amaranthus retroflexus); assay: Test A postemergence pigweed; details: 0 to 100 scale, 0 is no effect, 100 is complete control
Outline: as §1

[12] = tested on: pigweed (Amaranthus retroflexus); assay: Test A preemergence pigweed; details: 0 to 100 scale, 0 no effect, 100 complete control
Outline: as §1

[13] = tested on: barnyardgrass (Echinochloa crus-galli); assay: Test A preemergence barnyardgrass; details: 0 to 100 scale, 0 no effect, 100 complete control
Outline: as §1

[14] = tested on: blackgrass (Alopecurus myosuroides); assay: Test A postemergence blackgrass; details: 0 to 100 scale, 0 is no effect, 100 is complete control
Outline: as §1

[15] = tested on: galium (catchweed bedstraw, Galium aparine); assay: Test A postemergence galium; details: 0 to 100 scale, 0 is no effect, 100 is complete control
Outline: as §1

[16] = tested on: barnyardgrass (Echinochloa crus-galli); assay: Test B flooded paddy test barnyardgrass; details: Table B, Flood, scale 0 to 100
Outline: as §2

[17] = tested on: ragweed (common ragweed, Ambrosia elatior); assay: Test A preemergence ragweed; details: 0 to 100 scale, 0 no effect, 100 complete control
Outline: as §1

kochia (Kochia scoparia) [18] = assay: Test A preemergence kochia; details: 0 to 100 scale, 0 no effect, 100 complete control
Outline: as §1

rice (Oryza sativa) = assay: Test B flooded paddy test rice; details: Table B, Flood, scale 0 to 100
Outline: as §2

Row | Structure (SMILES) | Plant response rating, Wheat ([1]; 125 g ai/ha) | Plant response rating, Wheat ([1]; 500 g ai/ha) | Plant response rating, Corn (corn (Zea mays); 125 g ai/ha) | Plant response rating, Corn (corn (Zea mays); 500 g ai/ha) | Plant response rating, Foxtail, Giant ([4]; 125 g ai/ha) | Plant response rating, Foxtail, Giant ([4]; 500 g ai/ha) | Plant response rating, Ragweed ([5]; 125 g ai/ha) | Plant response rating, Ragweed ([5]; 500 g ai/ha) | Plant response rating, Barnyardgrass ([6]; 125 g ai/ha) | Plant response rating, Barnyardgrass ([6]; 500 g ai/ha) | Plant response rating, Ryegrass, Italian ([7]; 125 g ai/ha) | Plant response rating, Ryegrass, Italian ([7]; 500 g ai/ha) | Plant response rating, Kochia (kochia (Kochia scoparia) [8]; 125 g ai/ha) | Plant response rating, Kochia (kochia (Kochia scoparia) [8]; 500 g ai/ha) | Foxtail, Giant plant response rating ([9]; 125 g ai/ha) | Foxtail, Giant plant response rating ([9]; 500 g ai/ha) | Ryegrass, Italian plant response rating ([10]; 125 g ai/ha) | Ryegrass, Italian plant response rating ([10]; 500 g ai/ha) | Plant response rating, Pigweed ([11]; 125 g ai/ha) | Plant response rating, Pigweed ([11]; 500 g ai/ha) | also measured
1 | CS(=O)(=O)c1ccccc1NC(=O)C1C(=O)NCCC1c1cccc(C(F)(F)F)c1 (racemic) [Compound 32] | 0 | 0 | 0 | 30 | 40 | 40 | 0 | 0 | 60 | 70 | 0 | 20 | 0 | 20 | 70 | 90 | 0 | 30 | 0 | 0 | Plant response rating ([2]; 500 g ai/ha): 0; Plant response rating ([3]; 500 g ai/ha): 40; Pigweed plant response rating ([12]; 125 g ai/ha): 0; Pigweed plant response rating ([12]; 500 g ai/ha): 0; Barnyardgrass plant response rating ([13]; 125 g ai/ha): 20; Barnyardgrass plant response rating ([13]; 500 g ai/ha): 90; Plant response rating, Blackgrass ([14]; 125 g ai/ha): 0; Plant response rating, Blackgrass ([14]; 500 g ai/ha): 0; Plant response rating, Galium ([15]; 125 g ai/ha): 0; Plant response rating, Galium ([15]; 500 g ai/ha): 0; Plant response rating ([16]; 500 g ai/ha): 0; Ragweed plant response rating ([17]; 125 g ai/ha): 0; Ragweed plant response rating ([17]; 500 g ai/ha): 0; Kochia plant response rating (kochia (Kochia scoparia) [18]; 125 g ai/ha): 0; Kochia plant response rating (kochia (Kochia scoparia) [18]; 500 g ai/ha): 20; Plant response rating (rice (Oryza sativa); 500 g ai/ha): 0
2 | O=C1NCCC(c2cccc(Cl)c2)C1C(=O)Nc1ccccc1F (racemic) [Compound 34] | 0 | 0 | 0 | 0 | 40 | 80 | 0 | 0 | 40 | 90 | 0 | 0 | 0 | 0 | 50 | 90 | 0 | 0 | 0 | 0 | Plant response rating ([2]; 500 g ai/ha): 0; Plant response rating ([3]; 500 g ai/ha): 40; Pigweed plant response rating ([12]; 125 g ai/ha): 0; Pigweed plant response rating ([12]; 500 g ai/ha): 30; Barnyardgrass plant response rating ([13]; 125 g ai/ha): 40; Barnyardgrass plant response rating ([13]; 500 g ai/ha): 90; Plant response rating, Blackgrass ([14]; 125 g ai/ha): 0; Plant response rating, Blackgrass ([14]; 500 g ai/ha): 0; Plant response rating, Galium ([15]; 125 g ai/ha): 0; Plant response rating, Galium ([15]; 500 g ai/ha): 0; Plant response rating ([16]; 500 g ai/ha): 0; Ragweed plant response rating ([17]; 125 g ai/ha): 0; Ragweed plant response rating ([17]; 500 g ai/ha): 30; Kochia plant response rating (kochia (Kochia scoparia) [18]; 125 g ai/ha): 0; Kochia plant response rating (kochia (Kochia scoparia) [18]; 500 g ai/ha): 30; Plant response rating (rice (Oryza sativa); 500 g ai/ha): 0
3 | O=C1NCCC(c2cccc(C(F)(F)F)c2)C1C(=O)Nc1ccc(F)cc1F (racemic) [Compound 27] | 0 | 0 | 0 | 0 | 40 | 70 | 0 | 0 | 50 | 60 | 0 | 0 | 0 | 0 | 80 | 90 | 0 | 0 | 0 | 0 | Plant response rating ([2]; 500 g ai/ha): 0; Plant response rating ([3]; 500 g ai/ha): 0; Pigweed plant response rating ([12]; 125 g ai/ha): 0; Pigweed plant response rating ([12]; 500 g ai/ha): 0; Barnyardgrass plant response rating ([13]; 125 g ai/ha): 60; Barnyardgrass plant response rating ([13]; 500 g ai/ha): 90; Plant response rating, Blackgrass ([14]; 125 g ai/ha): 0; Plant response rating, Blackgrass ([14]; 500 g ai/ha): 0; Plant response rating, Galium ([15]; 125 g ai/ha): 0; Plant response rating, Galium ([15]; 500 g ai/ha): 0; Plant response rating ([16]; 500 g ai/ha): 0; Ragweed plant response rating ([17]; 125 g ai/ha): 0; Ragweed plant response rating ([17]; 500 g ai/ha): 0; Kochia plant response rating (kochia (Kochia scoparia) [18]; 125 g ai/ha): 0; Kochia plant response rating (kochia (Kochia scoparia) [18]; 500 g ai/ha): 0; Plant response rating (rice (Oryza sativa); 500 g ai/ha): 0
4 | O=C1NCCC(c2cccc(C(F)F)c2)C1C(=O)Nc1ccccc1F (stereo not drawn) [Compound 48] | 0 | 0 | 0 | 0 | 0 | 30 | 0 | 0 | 30 | 80 | 0 | 0 | 0 | 0 | 70 | 90 | 0 | 0 | 0 | 0 | Plant response rating ([2]; 250 g ai/ha): 0; Plant response rating ([3]; 250 g ai/ha): 60; Pigweed plant response rating ([12]; 125 g ai/ha): 0; Pigweed plant response rating ([12]; 500 g ai/ha): 0; Barnyardgrass plant response rating ([13]; 125 g ai/ha): 40; Barnyardgrass plant response rating ([13]; 500 g ai/ha): 90; Plant response rating, Blackgrass ([14]; 125 g ai/ha): 0; Plant response rating, Blackgrass ([14]; 500 g ai/ha): 0; Plant response rating, Galium ([15]; 125 g ai/ha): 0; Plant response rating, Galium ([15]; 500 g ai/ha): 0; Plant response rating ([16]; 250 g ai/ha): 20; Ragweed plant response rating ([17]; 125 g ai/ha): 0; Ragweed plant response rating ([17]; 500 g ai/ha): 0; Kochia plant response rating (kochia (Kochia scoparia) [18]; 125 g ai/ha): 0; Kochia plant response rating (kochia (Kochia scoparia) [18]; 500 g ai/ha): 0; Plant response rating (rice (Oryza sativa); 250 g ai/ha): 15
